# Measurements taken from publication PMC434488 (BMC Biochemistry, 2004).
# Columns and labels:
# [1] = biological target: S. cerevisiae carbamylphosphate synthetase – aspartate transcarbamylase multifunctional protein (CPSase-ATCase complex) (Saccharomyces cerevisiae, UniProt P07259, E2182K); assay type: biochemical
# [2] = biological target: S. cerevisiae carbamylphosphate synthetase – aspartate transcarbamylase multifunctional protein (CPSase-ATCase complex) (Saccharomyces cerevisiae, UniProt P07259); assay type: biochemical
# Chain of S. cerevisiae carbamylphosphate synthetase – aspartate transcarbamylase multifunctional protein (CPSase-ATCase complex) (Saccharomyces cerevisiae, UniProt P07259) (P07259 2-2214, one chain of several): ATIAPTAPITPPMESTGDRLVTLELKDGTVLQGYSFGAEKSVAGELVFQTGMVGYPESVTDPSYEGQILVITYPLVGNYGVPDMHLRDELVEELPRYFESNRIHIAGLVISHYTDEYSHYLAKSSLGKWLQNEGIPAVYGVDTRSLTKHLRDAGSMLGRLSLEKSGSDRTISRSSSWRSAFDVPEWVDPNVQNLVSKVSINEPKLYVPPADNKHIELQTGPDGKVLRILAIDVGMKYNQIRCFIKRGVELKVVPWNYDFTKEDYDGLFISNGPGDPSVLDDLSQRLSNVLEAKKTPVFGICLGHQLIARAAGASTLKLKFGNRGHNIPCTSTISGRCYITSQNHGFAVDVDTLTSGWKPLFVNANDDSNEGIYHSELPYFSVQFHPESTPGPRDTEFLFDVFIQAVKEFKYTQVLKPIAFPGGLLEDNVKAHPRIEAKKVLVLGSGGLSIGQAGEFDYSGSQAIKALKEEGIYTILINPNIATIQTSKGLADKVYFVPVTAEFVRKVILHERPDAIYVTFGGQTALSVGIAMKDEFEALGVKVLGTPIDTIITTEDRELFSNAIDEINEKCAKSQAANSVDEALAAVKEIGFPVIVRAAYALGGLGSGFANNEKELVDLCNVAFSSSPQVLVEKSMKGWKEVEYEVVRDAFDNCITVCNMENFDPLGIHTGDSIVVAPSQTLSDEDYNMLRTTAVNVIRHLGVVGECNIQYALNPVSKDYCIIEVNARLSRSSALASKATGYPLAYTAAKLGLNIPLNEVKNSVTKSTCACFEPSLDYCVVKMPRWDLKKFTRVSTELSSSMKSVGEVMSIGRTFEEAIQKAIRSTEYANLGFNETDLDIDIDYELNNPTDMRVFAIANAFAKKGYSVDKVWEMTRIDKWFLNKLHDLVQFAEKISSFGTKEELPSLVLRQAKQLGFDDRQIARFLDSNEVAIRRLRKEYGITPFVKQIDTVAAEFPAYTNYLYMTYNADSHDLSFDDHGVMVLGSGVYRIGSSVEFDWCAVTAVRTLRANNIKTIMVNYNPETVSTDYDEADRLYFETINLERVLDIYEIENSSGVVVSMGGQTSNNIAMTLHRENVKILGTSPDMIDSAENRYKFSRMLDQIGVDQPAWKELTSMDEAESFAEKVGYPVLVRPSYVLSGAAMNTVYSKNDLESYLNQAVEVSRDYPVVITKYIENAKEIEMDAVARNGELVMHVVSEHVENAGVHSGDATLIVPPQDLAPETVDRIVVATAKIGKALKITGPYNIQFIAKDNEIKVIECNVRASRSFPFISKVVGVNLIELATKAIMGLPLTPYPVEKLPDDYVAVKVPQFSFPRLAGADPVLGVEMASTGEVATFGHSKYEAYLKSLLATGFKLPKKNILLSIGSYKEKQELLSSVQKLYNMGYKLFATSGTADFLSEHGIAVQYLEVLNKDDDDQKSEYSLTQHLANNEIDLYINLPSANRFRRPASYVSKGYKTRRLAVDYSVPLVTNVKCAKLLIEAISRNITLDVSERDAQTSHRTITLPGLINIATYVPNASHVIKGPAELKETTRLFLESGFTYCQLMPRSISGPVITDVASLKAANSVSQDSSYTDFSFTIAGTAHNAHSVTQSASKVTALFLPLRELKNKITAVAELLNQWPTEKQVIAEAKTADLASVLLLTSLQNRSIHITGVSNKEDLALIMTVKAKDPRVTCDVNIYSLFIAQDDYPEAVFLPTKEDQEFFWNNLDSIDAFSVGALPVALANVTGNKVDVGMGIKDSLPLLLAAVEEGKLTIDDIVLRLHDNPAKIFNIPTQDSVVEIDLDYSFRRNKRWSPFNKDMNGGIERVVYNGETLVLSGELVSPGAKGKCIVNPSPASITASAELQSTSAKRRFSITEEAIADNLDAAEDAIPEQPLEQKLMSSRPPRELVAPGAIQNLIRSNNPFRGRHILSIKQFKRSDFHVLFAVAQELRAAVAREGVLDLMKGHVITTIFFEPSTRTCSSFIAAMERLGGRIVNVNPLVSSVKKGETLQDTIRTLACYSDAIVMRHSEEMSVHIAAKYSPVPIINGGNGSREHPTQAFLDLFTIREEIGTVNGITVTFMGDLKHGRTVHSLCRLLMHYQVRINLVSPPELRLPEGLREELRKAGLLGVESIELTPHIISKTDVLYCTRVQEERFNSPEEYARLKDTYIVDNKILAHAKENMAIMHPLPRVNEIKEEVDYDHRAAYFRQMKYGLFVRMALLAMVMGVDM
# Chain of S. cerevisiae carbamylphosphate synthetase – aspartate transcarbamylase multifunctional protein (CPSase-ATCase complex) (Saccharomyces cerevisiae, UniProt P07259, E2182K) (P07259 2-2214 E2182K, one chain of several): as the sequence (P07259 2-2214, one chain of several) above, with E2181K counted along it
structure (smiles),measurement,setting,value
O=c1ccn([C@@H]2O[C@H](COP(=O)(O)OP(=O)(O)OP(=O)(O)O)[C@@H](O)[C@H]2O)c(=O)[nH]1 [UTP],Ki,[1],3000 ± 1000 µM
same,IC50,[2],800 µM
